From US6074864A, “Cloned DNA for synthesizing unique glucocerebrosidase” (The United States of America as represented by the …, priority 1994, dated 2000) come the findings set out here.

Molecules are shown by their SMILES.

The test has as its target T1, recombinant human glucocerebrosidase produced in baculovirus/SF9 system, enzyme in the culture media (Homo sapiens, UniProt P04062).
T1 construct: made in house; host or cells: Spodoptera frugiperda SF9 cells infected with recombinant baculovirus (AcNPV, pAc373/GC)
T1 sequence (P04062 40-536): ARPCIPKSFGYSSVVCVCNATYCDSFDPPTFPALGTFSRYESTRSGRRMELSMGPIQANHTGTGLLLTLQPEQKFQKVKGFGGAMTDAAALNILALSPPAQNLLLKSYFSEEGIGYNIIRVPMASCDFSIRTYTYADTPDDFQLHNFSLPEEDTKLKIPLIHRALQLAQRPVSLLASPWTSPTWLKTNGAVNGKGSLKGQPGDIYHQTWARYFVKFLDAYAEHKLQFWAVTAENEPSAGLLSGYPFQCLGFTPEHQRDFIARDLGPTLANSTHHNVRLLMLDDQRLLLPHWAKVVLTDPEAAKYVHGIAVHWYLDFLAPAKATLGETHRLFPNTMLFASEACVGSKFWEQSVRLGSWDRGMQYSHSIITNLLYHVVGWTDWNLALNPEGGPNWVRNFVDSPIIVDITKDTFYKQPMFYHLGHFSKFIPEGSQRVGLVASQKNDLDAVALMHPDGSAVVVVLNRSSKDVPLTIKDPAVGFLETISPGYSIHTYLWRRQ
Kind of test: Km determination, β-glucosidase activity with 4MUGP. The settings on record: pH 5.9, 100 mM potassium phosphate, 0.15% Triton X-100, 0.125% sodium taurocholate. In kind it is biochemical. As to the method:
Glucocerebrosidase assays: For pH profile and inhibition studies, glucocerebrosidase activity was measured using 100 mM potassium phosphate buffer containing 0.15% Triton X-100, 2.5 μl of β-D-[1-^14 C] glucocerebroside (7.5 mg/ml in sodium taurocholate at 50 mg/ml), and the sample in the total volume of 200 ul. Preincubations with conduritol-B-epoxide were for 30 min at 37° C. […] Purification of recombinant glucocerebrosidase was also monitored using 4MUGP.

In general, Km refers to the substrate concentration at which the rate is half of its maximum. In the case of `Cc1cc(=O)oc2cc(O[C@@H]3O[C@H](CO)[C@@H](O)[C@H](O)[C@H]3O)ccc12` [4MUGP, 4-methylumbellifery-β-D-glucopyranoside], the Km turned out to be 3.3 mM.
